Experimental data published in US8563578B2, “Antitumor properties of NO modified protease inhibitors” (Onconox APS, priority 2008, dated 2013).
Where two headings read alike, the source gives them in different places.

Legend:
CD1 mice = details: CD1, mouse, in vivo, ip
Experimental: To define the acute toxicity of Sag and Sag NO2, the test compound was administered i.p. to CD1 mice at the single doses of 250, 500, 1000 and 1500 mg/Kg. Control groups were treated i.p. with vehicle (pure DMSO; 100 μl/mouse). Each group consisted of 10 mice. Mortality was evaluated every hour for the first 4 hours and then every 10 hours until 14 days after dosing.

C6 cells = test: Cyclin D3 and p53 expression (cELISA, immunocytochemistry, Western blot), C6; assay type: cell-based, rat; details: 18.8 μM, 24 h (Western blot 4 h)
Text: (§1) A slightly modified method for cell-based ELISA (cELISA) by Versteeg (Versteed et al., 2000) was used to measure the expression of galactocerebroside, glial fibrilar acidic protein (GFAP), myelin basic protein (MBP), cyclin D3, p53 and p-AKT. Briefly, at the end of cultivation period cells were fixed in 4% paraformaldehyde, endogenous peroxydase was quenched with 1% H2O2 in PBS containing 0.1% Triton X-100 (PBST), and unspecific binding of antibodies blocked with PBST solution containing 10% FCS. […] The absorbance at 450 nm was measured in an automated microplate reader 15 min after incubation with peroxydase substrate TMB and subsequently to addition of 0.1 M HCl. To facilitate comparison between treatments, the obtained absorbances were corrected for the cell number that was determined by crystal violet staining, as described in the original protocol.
The detection of expression of cyclin D3 and p53 expression was performed by the immunocytochemical procedure as previously described (Mijatovic et al, 2005). The cells were cultivated in glass chamber-slides (3×10^4 cells/well) and cyclin D3 and p53 expression were detected with specific antibodies against cyclin D3 (1:1000, Santa Cruz Biotechnology, Santa Cruz, Calif.) and p53 (1:500, Santa Cruz Biotechnology, Santa Cruz, Calif.). […]

B16 cells = test: MBP expression by cell-based ELISA, B16; set-up: species or system mouse; details: 18.8 μM, 24 h
Text: as §1, with “protocol. […]” for “protocol.”
FIG. 5. […] Cell morphology was assessed by light microscopy (A). Markers of cell differentiation of C6 and B16 cells, galactocerebroside, GFAP and MBP were determined by cELISA and melanin and tyrosinase activity were determined as described in material and methods (B). Cyclin D3 and p53 expression were evaluated by cELISA (C, upper panels), immunocytochemistry (C, middle panel) and Western blot (C, lower panel). […]

SMILES: CC(C)(C)NC(=O)[C@@H]1C[C@@H]2CCCC[C@@H]2CN1C[C@@H](O)[C@H](Cc1ccccc1)NC(=O)[C@H](CC(N)=O)NC(=O)c1ccc2ccccc2n1 [Saq, Saquinavir, reference compound]
- lethality (CD1 mice; 500 mg/kg, 24 h): 20%
- lethality (CD1 mice; 1000 mg/kg, 14 days): 30%
- lethality (CD1 mice; 14 days): 100%
- time of death (mean±SD) (CD1 mice; 14 days): 65 ± 58 h
- time of death (range) (CD1 mice; 14 days): 18 to 144 h

SMILES: CC(C)(C)NC(=O)[C@@H]1C[C@@H]2CCCC[C@@H]2CN1C[C@@H](O[N+](=O)[O-])[C@H](Cc1ccccc1)NC(=O)[C@H](CC(N)=O)NC(=O)c1ccc2ccccc2n1 [Saq-NO2, nitric ester of Saquinavir]
- cyclin D3 expression (C6 cells): not considerably changed
- p53 expression (C6 cells): much higher extent than Saq
- MBP expression (B16 cells): mild elevation
